{"source": "patent US20260258420A1", "about": "“COMPOSITIONS AND METHODS FOR THE TREATMENT OF HUMAN PAPILLOMAVIRUS-DRIVEN CANCERS” (priority 2023, published 2026)", "key": {"[1]": {"tested_on": "two HPV-positive cell lines transfected with E7 siRNA", "test": "Apoptosis immunoblot in HPV-positive cells with E7 siRNA", "format": "cell-based", "conditions": "300 nmol/L, 24 hours", "experimental": "Each data point represents 1 cell line. Box plots show the median pRb […] levels and 95% confidence intervals across all cell lines in the category. t-test P=0.0097. FIG. 4B, HPV-negative HNSCC cells (HN31, UMSCC4, and MDA886LN) were infected with distinct, lentivirus-based shRNAs (Sh2, Sh4, and Sh6) to stably knock down the expression of RB1 or were treated with control (Ctrl) shRNA. Cells were then treated with 300 nmol/L alisertib for 24 hours before annexin V-PE/7AAD staining and analysis with flow cytometry. The bar graph represents the ratio of apoptosis (late plus early) among different groups. Values are the means±the standard deviations for 3 independent experiments. *P<0.05; **P<0.005; unpaired, 2-tailed Student t-test. FIG. 4C, cells from FIG. 4B were treated with 300 nmol/L alisertib for 24 hours before lysis and immunoblotting with the indicated antibodies. FIG. 4D-E, HN31 cells were stably transfected with an E7 plasmid and treated with 300 nmol/L alisertib for 24 hours before lysis and immunoblotting with (FIG. 4D) the indicated antibodies or (FIG. 4E) annexin-PE staining to measure apoptosis. Values are the means±the standard deviations for 3 independent experiments. ** P≤0.01; *** P≤0.001. FIG. 4F, two HPV-positive cell lines were transfected with 10 nmol/L siRNA oligonucleotides specific to E7 or with control oligonucleotides. […]"}, "[2]": {"conditions": "human clinical trials; cited from earlier work"}, "[3]": {"tested_on": "2 HPV-positive cell lines transfected with MAD2L1 plasmid", "test": "Apoptosis with Mad2 overexpression", "format": "cell-based", "conditions": "100 nmol/L, 24 hours", "experimental": "FIG. 6A, mRNA expressions of MAD2L1, BUBIB and TRIP13 in HNSCC HPV-positive (n=70) and HPV-negative (n=447) HNSCC patient tumors from the TCGA (left panel) and in HPV-positive (n=51) and HPV-negative OPSCC [(n=28), right panel]. FIG. 6B, FIG. 6C, TRIP13 was depleted by siRNA in HPV-positive and negative cell lines. Cells were then treated with 100 nmol/L alisertib for 36 hours before being subjected to lysis and immunoblotting with the indicated antibodies (FIG. 6B) or annexin-PE staining to measure apoptosis using flow cytometry (FIG. 6C). FIG. 6D, FIG. 6E, the MAD2L1 plasmid was transiently transfected into 2 HPV-positive cell lines that were then treated with 100 nmol/L alisertib for 24 hours before being subjected to lysis and immunoblotting for the indicated proteins (FIG. 6D) or annexin-PE staining to measure apoptosis (FIG. 6E). Values are the means±the standard deviations for 3 independent experiments (** P≤0.01). Cl, cleaved; Fl, full length; GAPDH, glyceraldehyde 3-phosphate dehydrogenase; Ox, overexpression. FIG. 6F, model of the synthetic lethality between TRIP13 and Aurora kinase A. HPV-positive, Rb deficient cancer cells rely on both TRIP13 and Aurora kinase activity to maintain mitotic fidelity, such that their combined inhibition will lead to a prolonged spindle assembly checkpoint (SAC), irreversible mitotic arrest, and cancer cell death. […]"}, "[4]": {"tested_on": "HPV-negative cancer cell lines (UMSCC19, FaDu, and HN31)", "test": "BrdU-TUNEL apoptosis assay, HPV-negative cell lines", "format": "cell-based", "conditions": "50 nmol/L barasertib or 200 nmol/L alisertib, 72 hours or 2 doubling times", "experimental": "BrdU positive apoptotic cells were detected and quantified. The bar graph indicates the percentage of apoptotic cells with fragmented DNA in HPV-positive and HPV-negative cell lines. Values are the means±the standard deviations for 3 independent experiments. FIG. 2B and FIG. 2C show immunoblots of cleaved PARP (Cl. PARP) and cleaved caspase-3 (Cl. Caspase-3) levels in 3-HPV positive and 3 HPV-negative cell lines after barasertib or alisertib treatment for 2 doubling times (FIG. 2B) or 72 hours (FIG. 2C). […] UM47, UMSCC47; GAPDH, glyceraldehyde 3-phosphate dehydrogenase.\nTo measure apoptosis, TUNEL staining was performed with an APO-BRDU Kit (BD Biosciences, San Jose, CA) and annexin V/propidium iodide staining with an FITC Annexin V Apoptosis Detection Kit PE (eBioscience, San Diego, CA) as described previously (Kalu, et al., Cancer Lett 2018; 431:64-72). […] Data were acquired with a 3-laser, 10-color Gallios flow cytometer (Beckman Coulter, Brea, CA) and analyzed using Kaluza software, RRID:SCR_016182 (Beckman Coulter, Brea, CA). […] Briefly, after drug treatment, cells were incubated with Senescence Green Probe, a fluorescence-based reagent that contains 2 galactoside moieties that make it specific to […]. The enzyme-cleaved product is retained within the cell, and it emits a fluorogenic signal that was measured at 490/514 nm using a flow cytometer. […]"}}, "data": [{"compound": "COc1cc(Nc2ncc3c(n2)-c2ccc(Cl)cc2C(c2c(F)cccc2OC)=NC3)ccc1C(=O)O", "note": "[ALISERTIB, alisertib]", "values": [{"measurement": "apoptosis with and without E7 knockdown (increased Rb expression)", "setting": "[1]", "result": "caused apoptosis in the HPV-positive cell lines but not in the same cells with increased Rb expression"}, {"measurement": "common toxicities", "setting": "[2]", "result": "anemia, thrombocytopenia, and neutropenia"}, {"measurement": "apoptosis with Mad2 overexpression", "setting": "[3]", "result": "enhanced apoptosis"}, {"measurement": "apoptosis (TUNEL)", "setting": "[4]", "result": "no appreciable levels of apoptosis"}]}]}
